Test results taken from publication PMC8710804, “Stapled Anoplin as an Antibacterial Agent” (Frontiers in Microbiology, 2021).
Several values for one entry are separate records, joined by “and”; a condition that tells them apart may be missing. Equal values may be shown once. Where a SMILES comes first, the peptide text is derived from it. Bridges are numbered along the chain shown (N, C = ends). Where no end group is shown, it is not given here. [ ]: non-standard residue; d: D form. S5 = C=CCCC[C@](C)(N)C(=O)O

Experiments:
[1] = tested on: S. aureus ATCC 29213; settings: cation-adjusted MHB, ~5 × 10^5 CFU/ml, 37°C, 19 h + 1 h resazurin, OD600, at least three replicates for peptides, one for antibiotics
[2] = tested on: P. aeruginosa PAO1; settings: cation-adjusted MHB, ~5 × 10^5 CFU/ml, 37°C, 19 h + 1 h resazurin, OD600, at least three replicates for peptides, one for antibiotics
[3] = tested on: E. coli WR 3551/98 ESBL+; settings: cation-adjusted MHB, ~5 × 10^5 CFU/ml, 37°C, 19 h + 1 h resazurin, OD600, at least three replicates for peptides, one for antibiotics
[4] = tested on: P. aeruginosa ATCC 27853; settings: cation-adjusted MHB, ~5 × 10^5 CFU/ml, 37°C, 19 h + 1 h resazurin, OD600, at least three replicates for peptides, one for antibiotics
[5] = tested on: E. coli K12 MG1655; settings: cation-adjusted MHB, ~5 × 10^5 CFU/ml, 37°C, 19 h + 1 h resazurin, OD600, at least three replicates for peptides, one for antibiotics
[6] = tested on: sheep red blood cells; experiment: Hemolysis assay; format: cell-based; settings: sheep RBC in PBS pH 7.4, 37°C, 30 min, absorbance 405 nm, relative to 1% Triton-X-100, average of three independent measurements
Method: Sheep RBC (200 μl) were pelleted (3,500 rpm for 5 min), washed three times with PBS buffer (PBS 10 mM and 150 mM NaCl, pH 7.4). The cells were then diluted in PBS buffer (10 ml), divided into 50 parts into 1.5 ml tubes, and pelleted by centrifugation. Various concentrations of peptide solutions (200 μl) were added to the cells and incubated with shaking (165 rpm, 37°C) for 30 min. The cells were pelleted by centrifugation (3,500 rpm for 5 min). Then, 100 μl of supernatant from each tube was collected into a clear 96-well plate, and the absorbance of the released hemoglobin was measured with a plate reader spectrophotometer (Microplate Reader Biotek, Winooski, VT, United States) at 405 nm. Hemolysis was determined relative to the negative control (PBS) and the positive control (1% v/v Triton-X-100 that lyses 100% of RBC). The percentage of hemolysis was determined using the following equation:
where A0 is the absorbance intensity of the RBC in buffer (background), and A and A100 are the absorbance intensities of the RBS in the presence of peptides and Triton X-100, respectively.The tests were performed with duplicate samples, and the average values of three independent measurements were recorded.

[7] = tested on: S. typhimurium LT2; settings: cation-adjusted MHB, ~5 × 10^5 CFU/ml, 37°C, 19 h + 1 h resazurin, OD600, at least three replicates for peptides, one for antibiotics
[8] = tested on: E. coli 1841/06 ESBL+; settings: cation-adjusted MHB, ~5 × 10^5 CFU/ml, 37°C, 19 h + 1 h resazurin, OD600, at least three replicates for peptides, one for antibiotics
[9] = tested on: B. subtilis 168; settings: cation-adjusted MHB, ~5 × 10^5 CFU/ml, 37°C, 19 h + 1 h resazurin, OD600, at least three replicates for peptides, one for antibiotics
[10] = tested on: S. aureus ATCC BAA1720 MRSA; settings: cation-adjusted MHB, ~5 × 10^5 CFU/ml, 37°C, 19 h + 1 h resazurin, OD600, at least three replicates for peptides, one for antibiotics
[11] = tested on: trypsin; experiment: Trypsin digestion assay; format: in vitro ADME; settings: trypsin:peptide 1:1333, 0.1 M NH4HCO3 pH 8.0, 37°C, RP-HPLC peak area, performed thrice; for stability against trypsin (comparison in words): up to 8 min
Method: 250 μl of peptide solution in ammonium bicarbonate buffer (0.1 M NH4HCO3, pH 8.0) and an appropriate amount of trypsin (Sigma-Aldrich) solution in water were incubated at 37°C with rapid shaking (600 rpm). Trypsin and peptides were mixed in the ratio (1:1333; [Luong et al., 2017b]). After 2, 4, 6, and 8 min of incubation, 60 μl of digestion mixture was taken and treated with 60 μl of a solution of 50% acetonitrile containing 1% TFA to stop the digestion. Peptide degradation was analyzed with RP-HPLC using analytical methods to assess peptide purity (see subsection Synthesis of stapled anoplins). The results were calculated as the percentage of peptide peak of area degradation. The total area of every peak was designated for experiments without trypsin. Each of the experiments was performed thrice.

[12] = tested on: E. coli O157:H7; settings: cation-adjusted MHB, ~5 × 10^5 CFU/ml, 37°C, 19 h + 1 h resazurin, OD600, at least three replicates for peptides, one for antibiotics
[13] = tested on: HEK 293 cells; experiment: DAPI staining, confocal microscopy of cell morphology; format: cell-based, human; settings: HEK 293, 24 h, 64 μM of anoplin, 8–32 μM of derivatives (32 μM of anoplin[2-6]), confocal microscope
Method: 1 × 10^5 cells were seeded into coverslips and incubated for 24 h. The cells were then treated with anoplin (64 μM) or its derivatives (8–32 μM) for 24 h. Next, cells were washed with PBS and fixed in 4% PFA for 15 min at room temperature. After three washes with PBS, cells were stained with DAPI (4′,6-diamidino-2-phenylindole, dihydrochloride; Boster) for 5 min (as indicated in the instruction). Coverslips with cells were washed three times and mounted on a glass microscope slide using a Dako Fluorescence Mounting Medium. Images were acquired with Axio Imager Z2 LSM 700 Zeiss confocal microscope.

[14] = tested on: HEK 293 cells; experiment: Cytotoxicity assay (MTT); format: cell-based, human; settings: n = 3
Method: The HEK 293 cells were seeded at a density 2 × 10^4 per well on a 96-well plate and incubated in high glucose DMEM medium (Lonza) supplemented with 10% FBS and 50 U/ml of penicillin–streptomycin at 37°C in 5% CO2. After 24 h, cells were covered with a fresh medium containing tested peptides at different concentrations (4, 8, 16, and 32 μM). After 24 or 48 h of incubation, cells viability was tested using MTT [3-(4,5-dimethylthiazol-2-yl)-2,5-diphenyltetrazolium bromide] (Merck). Briefly, 10 μl of 5 mg/ml MTT was added to each well and incubated for 4 h. Formazan produced from MTT was solubilized during overnight incubation in 100 μl of 10% SDS in 0.01 M HCl. Absorbance at 590 nm was measured using Microplate Reader Biotek (Winooski, VT, United States). The experiment was performed in triplicates.

Row | Molecule | MIC [1] | MIC [2] | MIC [3] | MIC [4] | MIC [5] | Hemolytic activity ([6]; 4 μM peptide) | Hemolytic activity ([6]; 8 μM peptide) | Hemolytic activity ([6]; 16 μM peptide) | Hemolytic activity ([6]; 32 μM peptide) | Hemolytic activity ([6]; 64 μM peptide) | MIC [7] | MIC [8] | MIC [9] | MIC [10] | stability against trypsin (comparison in words) [11] | MIC [12] | morphology of cells [13] | also measured
1 | C=CCCC[C@](C)(NC(=O)[C@H](CCCCN)NC(=O)[C@H](CC(C)C)NC(=O)[C@H](CC(C)C)NC(=O)CN)C(=O)N[C@H](C(=O)N[C@@H](CCCCN)C(=O)N[C@H](C(=O)N[C@@](C)(CCCC=C)C(=O)N[C@@H](CC(C)C)C(N)=O)[C@@H](C)O)[C@@H](C)CC [anoplinS5(5,9)] (H-GLLK[S5]IKT[S5]L-NH2) | 8 µM | 64 µM | 64 µM | ≥64 µM | 64 µM | 6.7% | 7.2% | 8.9% | 11.9% | 14.2% | ≥64 µM | 32 µM | 8 µM | 8 µM | significantly higher stability against trypsin | 32 µM | altered cell appearance and the presence of cellular debris | stability against trypsin (comparison in words) ([11]; listed as S5(5-9) peptide): highest enzymatic resistance
2 | CC[C@H](C)[C@@H]1NC(=O)[C@@](C)(NC(=O)[C@H](CCCCN)NC(=O)[C@H](CC(C)C)NC(=O)[C@H](CC(C)C)NC(=O)CN)CCCC=CCCC[C@@](C)(C(=O)N[C@@H](CC(C)C)C(N)=O)NC(=O)[C@H]([C@@H](C)O)NC(=O)[C@H](CCCCN)NC1=O [anoplin[5-9]] (H-GLLK[S5]IKT[S5]L-NH2; staple 5-9) | 4 µM | 16 µM | 16 µM | 32 µM | 16 µM | 6.5% | 16.6% | 29.8% |  | 62.7% | 32 µM | 8 µM | 4 µM | 4 µM | significantly higher stability against trypsin | 8 µM | altered cell appearance and the presence of cellular debris | dead cells ([14]; HEK 293, 16 μM peptide): approximately 60%; effect on living cells ([14]; HEK 293, 32 μM peptide): nearly eliminated all living cells; Hemolytic activity ([6]; 32 μM peptide, listed as Anoplin[5-9]): 43.2%; Hemolytic activity ([6]; 32 μM peptide, listed as anoplin [5-9]): 43%
3 | NC[C@H]1O[C@H](O[C@H]2[C@H](O)[C@@H](O[C@H]3O[C@H](CO)[C@@H](O)[C@H](N)[C@H]3O)[C@H](N)C[C@@H]2N)[C@H](O)[C@@H](O)[C@@H]1O [kanamycin] | 4 µM | ≥64 µM | ≥64 µM | ≥64 µM | 8 µM |  |  |  |  |  | ≥64 µM | ≥64 µM | 0.25 µM | ≥64 µM |  | 2 µM |  | 
4 | GLLKRIKTLL-NH2 [anoplin] | ≥64 µM | 16 µM | 64 µM | 32 µM | 32 µM | 0.5% | 1.3% | 0.7% | 4% and 0.6% | 2.3% | 64 µM | 64 µM | 16 µM | ≥64 µM |  | 64 µM | not altered | effect on cell viability compared to untreated control cells ([14]; HEK 293, 4-32 μM peptide, 24 and 48 h of treatment): no significant effect on cell viability; time of incubation with trypsin to complete decay of the peptide peak ([11]; 600 rpm, sampled at 2, 4, 6, 8 min): 4 to 6 min
5 | polymyxin B | ≥64 µM | 0.5 µM | 0.5 µM | 0.25 µM | 0.25 µM |  |  |  |  |  | 0.5 µM | 0.25 µM | 2 µM | ≥64 µM |  | 0.5 µM |  | 
